Experimental data from US20220324835A1 (Nurix Therapeutics, Inc., priority 2018, published 2022).

Key:
Cbl-b [1] = target: T1, Cbl-b (Homo sapiens, UniProt Q13191); test: Cbl-b inhibition assay (Cbl-b activity assay, FRET, Biological Example 1; 100 mM NaCl, 60 nM Src kinase); format: biochemical; details: upper bound stated in text lists; read-out: IC50 values in the Cbl-b inhibition assay of Biological Example 1
Procedure, shortened: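 Here, the E2 UbcH5B, irreversibly linked to Bodipy-fluorescein ubiquitin, binds Cbl-b once Src kinase phosphorylates it; Cbl-b carries an N-terminal biotinylated Avi-tag captured by streptavidin-terbium. An absent FRET signal indicates inhibition.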

T-cell = test: IL-2 secretion from T-cells co-stimulated with anti-CD3 and anti-CD28 antibody (Biological Example 2); format: cell-based, human; details: Homo sapiens, T-cell, primary human total T-cells, baseline = anti-CD3/anti-CD28 stimulated cells without inhibitor, read-out: IL-2 secretion, Anti-CD3/Anti-CD28 stimulation, fold change over baseline; for fold induction at 0.3 µM: 0.3 μM compound; for fold induction at 1 µM: 1 μM compound; for fold induction at 4 µM: 4 μM compound
Procedure, shortened: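 T-cells were stimulated with anti-CD3 antibody alone or with anti-CD28 antibody, in the presence or absence of Cbl-b inhibitor. IL-2 secretion or CD25 surface staining was measured, and values expressed as fold over the uninhibited baseline […].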

Cbl-b [2] = target: T1, Cbl-b; test: Cbl-b activity assay (Cbl-b inhibition assay), TR-FRET of Cbl-b interaction with UbcH5B-Ub; format: biochemical; details: assay buffer with 100 mM NaCl, 60 nM Src kinase; read-out: Cbl-b activity IC50
Procedure, shortened: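 UbcH5B (C85K) conjugated to N-terminally Bodipy-Fluorescein-labeled ubiquitin served as the fluorescent partner. After compound preincubation, Src kinase (60 nM) with 1 mM ATP and 5 mM MgCl2 (final) was added for 1.5 h, followed by a further 1 h incubation. Some values were obtained with 50 mM NaCl and 30 nM Src.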

T1 sequence (Q13191 36-427): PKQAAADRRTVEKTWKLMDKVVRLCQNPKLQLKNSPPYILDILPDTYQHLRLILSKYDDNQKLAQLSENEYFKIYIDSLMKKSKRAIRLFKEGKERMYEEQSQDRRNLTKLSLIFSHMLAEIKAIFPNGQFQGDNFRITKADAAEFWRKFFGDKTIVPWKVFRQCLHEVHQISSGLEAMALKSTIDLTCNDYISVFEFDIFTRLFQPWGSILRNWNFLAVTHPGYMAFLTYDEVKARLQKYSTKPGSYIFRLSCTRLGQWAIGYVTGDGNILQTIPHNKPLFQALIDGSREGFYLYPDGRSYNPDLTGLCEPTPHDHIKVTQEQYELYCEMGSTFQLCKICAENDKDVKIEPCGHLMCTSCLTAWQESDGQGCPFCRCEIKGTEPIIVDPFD

Work on C[C@H](Cc1nncn1C)c1cccc(N2Cc3c(cc(CN4CC(O)C4)cc3C(F)(F)F)C2=O)c1 [Compound 393, (R)-6-((3-hydroxyazetidin-1-yl)methyl)-2-(3-(1-(4-methyl-4H-1,2,4-triazol-3-yl)propan-2-yl)phenyl)-4-(trifluoromethyl)isoindolin-1-one] yielded an IC50 (Cbl-b [1]) of no more than 100 nM, a fold induction at 0.3 µM (T-cell) of 2.51 to 5 and a fold induction at 1 µM (T-cell) greater than 7.5. For the same compound, the fold induction at 4 µM (T-cell) was greater than 7.5 and the IC50 (Cbl-b [2]) was less than 100 nM.
With Cn1cnnc1C(F)(F)[C@](C)(F)c1cccc(N2Cc3c(cc(C(=O)N4CC[C@H](O)C4)cc3C(F)(F)F)C2=O)c1 [Compound 438, 6-((S)-3-hydroxypyrrolidine-1-carbonyl)-2-(3-((R)-1,1,2-trifluoro-1-(4-methyl-4H-1,2,4-triazol-3-yl)propan-2-yl)phenyl)-4-(trifluoromethyl)isoindolin-1-one] the IC50 (Cbl-b [1]) was no more than 100 nM, the fold induction at 0.3 µM (T-cell) was 1.01 to 2.5 and the fold induction at 1 µM (T-cell) was 2.51 to 5. It also gave a fold induction at 4 µM (T-cell) greater than 7.5 and an IC50 (Cbl-b [2]) of less than 100 nM.
In the case of COC1CN(Cc2cc3c(c(C(F)(F)F)c2)CN(c2cccc([C@@](C)(F)C(F)(F)c4nncn4C)c2)C3=O)C1 [Compound 452, (R)-6-((3-methoxyazetidin-1-yl)methyl)-2-(3-(1,1,2-trifluoro-1-(4-methyl-4H-1,2,4-triazol-3-yl)propan-2-yl)phenyl)-4-(trifluoromethyl)isoindolin-1-one], the IC50 (Cbl-b [1]) is reported as no more than 100 nM, the fold induction at 0.3 µM (T-cell) is reported as 2.51 to 5 and the fold induction at 1 µM (T-cell) is reported as 5 to 7.5. It also gave a fold induction at 4 µM (T-cell) greater than 7.5 and an IC50 (Cbl-b [2]) of less than 100 nM.
C[C@H](c1cc2c(c(C(F)(F)F)c1)CN(c1cccc(C3(Cc4nncn4C)COC3)c1)C2=O)N1CC[C@H](F)C1 [Compound 413, 6-((R)-1-((S)-3-fluoropyrrolidin-1-yl)ethyl)-2-(3-(3-((4-methyl-4H-1,2,4-triazol-3-yl)methyl)oxetan-3-yl)phenyl)-4-(trifluoromethyl)isoindolin-1-one] showed an IC50 (Cbl-b [1]) of no more than 100 nM, a fold induction at 0.3 µM (T-cell) of 5 to 7.5 and a fold induction at 1 µM (T-cell) greater than 7.5. It also gave a fold induction at 4 µM (T-cell) greater than 7.5 and an IC50 (Cbl-b [2]) of less than 100 nM.
Compound Cn1cnnc1CC1(c2cccc(NC(=O)c3cc(CN4CCC5(CC5)C4)cc(C4CC4)n3)c2)COC1 [Compound 519, 4-((5-azaspiro[2.4]heptan-5-yl)methyl)-6-cyclopropyl-N-(3-(3-((4-methyl-4H-1,2,4-triazol-3-yl)methyl)oxetan-3-yl)phenyl)picolinamide] has an IC50 (Cbl-b [1]) of no more than 100 nM, a fold induction at 0.3 µM (T-cell) greater than 7.5 and a fold induction at 1 µM (T-cell) greater than 7.5. For the same compound, the IC50 (Cbl-b [2]) was less than 100 nM.
In the case of Cn1cnnc1C(F)(F)[C@](C)(F)c1cccc(N2Cc3c(cc(CN4CC[C@H](F)C4)cc3C(F)(F)F)C2=O)c1 [Compound 447, 6-(((S)-3-fluoropyrrolidin-1-yl)methyl)-2-(3-((R)-1,1,2-trifluoro-1-(4-methyl-4H-1,2,4-triazol-3-yl)propan-2-yl)phenyl)-4-(trifluoromethyl)isoindolin-1-one], the IC50 (Cbl-b [1]) is reported as no more than 100 nM, the fold induction at 0.3 µM (T-cell) is reported as 2.51 to 5 and the fold induction at 1 µM (T-cell) is reported as greater than 7.5. The fold induction at 4 µM (T-cell) was greater than 7.5 and the IC50 (Cbl-b [2]) was less than 100 nM.
Work on Cn1cnnc1CC1(c2cccc(N3Cc4c(cc(CN5C[C@H]6C[C@H]6C5)cc4C(F)(F)F)C3=O)c2)COC1 [Compound 429, 6-(((1R,5S)-3-azabicyclo[3.1.0]hexan-3-yl)methyl)-2-(3-(3-((4-methyl-4H-1,2,4-triazol-3-yl)methyl)oxetan-3-yl)phenyl)-4-(trifluoromethyl)isoindolin-1-one] yielded an IC50 (Cbl-b [1]) of no more than 100 nM, a fold induction at 0.3 µM (T-cell) greater than 7.5 and a fold induction at 1 µM (T-cell) greater than 7.5. The fold induction at 4 µM (T-cell) was greater than 7.5 and the IC50 (Cbl-b [2]) was less than 100 nM.
With Cn1cnnc1C(F)(F)[C@](C)(F)c1cccc(N2Cc3c(cc(CN4CC[C@@H](C#N)C4)cc3C(F)(F)F)C2=O)c1 [Compound 455, (R)-1-((3-oxo-2-(3-((R)-1,1,2-trifluoro-1-(4-methyl-4H-1,2,4-triazol-3-yl)propan-2-yl)phenyl)-7-(trifluoromethyl)isoindolin-5-yl)methyl)pyrrolidine-3-carbonitrile] the IC50 (Cbl-b [1]) was no more than 100 nM, the fold induction at 0.3 µM (T-cell) was 5 to 7.5 and the fold induction at 1 µM (T-cell) was greater than 7.5. For the same compound, the fold induction at 4 µM (T-cell) was greater than 7.5 and the IC50 (Cbl-b [2]) was less than 100 nM.
Cn1cnnc1CC1(c2cccc(N3Cc4c(cc(CN5CC6(CC6)C5)cc4C(F)(F)F)C3=O)c2)COC1 [Compound 487, 6-{5-azaspiro[2.3]hexan-5-ylmethyl}-2-(3-{3-[(4-methyl-1,2,4-triazol-3-yl)methyl]oxetan-3-yl}phenyl)-4-(trifluoromethyl)-3H-isoindol-1-one] showed an IC50 (Cbl-b [1]) of no more than 100 nM, a fold induction at 0.3 µM (T-cell) greater than 7.5 and a fold induction at 1 µM (T-cell) greater than 7.5. The IC50 (Cbl-b [2]) was less than 100 nM.
Cn1cnnc1CC1(c2cccc(NC(=O)c3cc(CN4CC[C@H](F)C4)cc(C4CC4)n3)c2)COC1 [Compound 496, 6-cyclopropyl-4-{[(3S)-3-fluoropyrrolidin-1-yl]methyl}-N-(3-{3-[(4-methyl-1,2,4-triazol-3-yl)methyl]oxetan-3-yl}phenyl)pyridine-2-carboxamide] gave an IC50 (Cbl-b [1]) of no more than 100 nM, a fold induction at 0.3 µM (T-cell) greater than 7.5 and a fold induction at 1 µM (T-cell) greater than 7.5. It also gave an IC50 (Cbl-b [2]) of less than 100 nM.
With Cn1cnnc1C(F)(F)[C@](C)(F)c1cccc(N2Cc3c(cc(CN4CCC(F)(F)C4)cc3C(F)(F)F)C2=O)c1 [Compound 448, (R)-6-((3,3-difluoropyrrolidin-1-yl)methyl)-2-(3-(1,1,2-trifluoro-1-(4-methyl-4H-1,2,4-triazol-3-yl)propan-2-yl)phenyl)-4-(trifluoromethyl)isoindolin-1-one] the IC50 (Cbl-b [1]) was no more than 100 nM, the fold induction at 0.3 µM (T-cell) was 1.01 to 2.5 and the fold induction at 1 µM (T-cell) was 2.51 to 5. The fold induction at 4 µM (T-cell) was greater than 7.5 and the IC50 (Cbl-b [2]) was less than 100 nM.
Compound C[C@H](c1cc2c(c(C(F)(F)F)c1)CN(c1cccc(C3(Cc4nncn4C)COC3)c1)C2=O)N1CCC(C)(F)CC1 [Example 553b, (R)-6-(1-(4-fluoro-4-methylpiperidin-1-yl)ethyl)-2-(3-(3-((4-methyl-4H-1,2,4-triazol-3-yl)methyl)oxetan-3-yl)phenyl)-4-(trifluoromethyl)isoindolin-1-one] has an IC50 (Cbl-b [1]) of no more than 100 nM, a fold induction at 0.3 µM (T-cell) greater than 7.5 and a fold induction at 1 µM (T-cell) greater than 7.5. It also gave an IC50 (Cbl-b [2]) of less than 100 nM.
Cn1cnnc1CC1(c2cccc(N3Cc4c(cc(CN5CC[C@H](F)C5)cc4C(F)(F)F)C3=O)c2)COC1 [Compound 410, 6-{[(3S)-3-fluoropyrrolidin-1-yl]methyl}-2-(3-{3-[(4-methyl-4H-1,2,4-triazol-3-yl)methyl]oxetan-3-yl}phenyl)-4-(trifluoromethyl)-2,3-dihydro-1H-isoindol-1-one] showed an IC50 (Cbl-b [1]) of no more than 100 nM, a fold induction at 0.3 µM (T-cell) of 5 to 7.5 and a fold induction at 1 µM (T-cell) greater than 7.5. It also gave a fold induction at 4 µM (T-cell) greater than 7.5 and an IC50 (Cbl-b [2]) of less than 100 nM.
Cc1n[nH]c(C)c1-c1cc2c(c(C(F)(F)F)c1)CN(c1cccc(C3(Cc4nncn4C)COC3)c1)C2=O [Compound 385, 6-(3,5-dimethyl-1H-pyrazol-4-yl)-2-(3-{3-[(4-methyl-4H-1,2,4-triazol-3-yl)methyl]oxetan-3-yl}phenyl)-4-(trifluoromethyl)-2,3-dihydro-1H-isoindol-1-one] was tested, and the IC50 (Cbl-b [1]) was no more than 100 nM, the fold induction at 0.3 µM (T-cell) was 1.01 to 2.5 and the fold induction at 1 µM (T-cell) was 2.51 to 5. For the same compound, the fold induction at 4 µM (T-cell) was greater than 7.5 and the IC50 (Cbl-b [2]) was less than 100 nM.
In the case of C[C@@H](c1cc2c(c(C(F)(F)F)c1)CN(c1cccc(C3(Cc4nncn4C)COC3)c1)C2=O)N1CCC(C)(F)CC1 [Example 553a, (S)-6-(1-(4-fluoro-4-methylpiperidin-1-yl)ethyl)-2-(3-(3-((4-methyl-4H-1,2,4-triazol-3-yl)methyl)oxetan-3-yl)phenyl)-4-(trifluoromethyl)isoindolin-1-one], the IC50 (Cbl-b [1]) is reported as no more than 100 nM, the fold induction at 0.3 µM (T-cell) is reported as greater than 7.5 and the fold induction at 1 µM (T-cell) is reported as greater than 7.5. It also gave an IC50 (Cbl-b [2]) of less than 100 nM.
Cn1cnnc1CC1(c2cccc(N3Cc4c(cc(CN5CC(F)C5)cc4C(F)(F)F)C3=O)c2)COC1 [Compound 415, 6-((3-fluoroazetidin-1-yl)methyl)-2-(3-(3-((4-methyl-4H-1,2,4-triazol-3-yl)methyl)oxetan-3-yl)phenyl)-4-(trifluoromethyl)isoindolin-1-one] was tested, and the IC50 (Cbl-b [1]) was no more than 100 nM, the fold induction at 0.3 µM (T-cell) was 5 to 7.5 and the fold induction at 1 µM (T-cell) was greater than 7.5. It also gave a fold induction at 4 µM (T-cell) greater than 7.5 and an IC50 (Cbl-b [2]) of less than 100 nM.
With C[C@H](Cc1nncn1C)c1cccc(N2Cc3c(cc(CN4CC(C)(O)C4)cc3C(F)(F)F)C2=O)c1 [Compound 397] the IC50 (Cbl-b [1]) was no more than 100 nM, the fold induction at 0.3 µM (T-cell) was 2.51 to 5 and the fold induction at 1 µM (T-cell) was greater than 7.5. For the same compound, the fold induction at 4 µM (T-cell) was greater than 7.5 and the IC50 (Cbl-b [2]) was less than 100 nM.
Compound C[C@H](Cc1nncn1C)c1cccc(N2Cc3c(cc(CN4CC[C@](C)(O)C4)cc3C(F)(F)F)C2=O)c1 [Compound 398, 6-(((S)-3-hydroxy-3-methylpyrrolidin-1-yl)methyl)-2-(3-((R)-1-(4-methyl-4H-1,2,4-triazol-3-yl)propan-2-yl)phenyl)-4-(trifluoromethyl)isoindolin-1-one] has an IC50 (Cbl-b [1]) of no more than 100 nM, a fold induction at 0.3 µM (T-cell) of 2.51 to 5 and a fold induction at 1 µM (T-cell) of 5 to 7.5. The fold induction at 4 µM (T-cell) was greater than 7.5 and the IC50 (Cbl-b [2]) was less than 100 nM.
